Measurements as given in patent US9416128B2, “Fused heterocyclic compounds as ion channel modulators” (Gilead Sciences, Inc., priority 2013, dated 2016).

Key:
hNaV1.2 (SCN2A) = molecular target: T1, hNaV1.2 (SCN2A) (Homo sapiens, UniProt Q99250); assay: Use-dependent inhibition of the CNS NaV1.2 sodium channel; format: cell-based; settings: % inhibition; for inhibition at 1 µM / inhibition at 10 µM: HEK-293, 25 Hz; for inhibition at 1 µM: read-out: Nav1.2 UDB 25 Hz 1 uM; for inhibition at 10 µM: read-out: Nav1.2 UDB 25 Hz 10 uM
T1 construct: expressed in transfected cells
T1 sequence (Q99250 whole entry): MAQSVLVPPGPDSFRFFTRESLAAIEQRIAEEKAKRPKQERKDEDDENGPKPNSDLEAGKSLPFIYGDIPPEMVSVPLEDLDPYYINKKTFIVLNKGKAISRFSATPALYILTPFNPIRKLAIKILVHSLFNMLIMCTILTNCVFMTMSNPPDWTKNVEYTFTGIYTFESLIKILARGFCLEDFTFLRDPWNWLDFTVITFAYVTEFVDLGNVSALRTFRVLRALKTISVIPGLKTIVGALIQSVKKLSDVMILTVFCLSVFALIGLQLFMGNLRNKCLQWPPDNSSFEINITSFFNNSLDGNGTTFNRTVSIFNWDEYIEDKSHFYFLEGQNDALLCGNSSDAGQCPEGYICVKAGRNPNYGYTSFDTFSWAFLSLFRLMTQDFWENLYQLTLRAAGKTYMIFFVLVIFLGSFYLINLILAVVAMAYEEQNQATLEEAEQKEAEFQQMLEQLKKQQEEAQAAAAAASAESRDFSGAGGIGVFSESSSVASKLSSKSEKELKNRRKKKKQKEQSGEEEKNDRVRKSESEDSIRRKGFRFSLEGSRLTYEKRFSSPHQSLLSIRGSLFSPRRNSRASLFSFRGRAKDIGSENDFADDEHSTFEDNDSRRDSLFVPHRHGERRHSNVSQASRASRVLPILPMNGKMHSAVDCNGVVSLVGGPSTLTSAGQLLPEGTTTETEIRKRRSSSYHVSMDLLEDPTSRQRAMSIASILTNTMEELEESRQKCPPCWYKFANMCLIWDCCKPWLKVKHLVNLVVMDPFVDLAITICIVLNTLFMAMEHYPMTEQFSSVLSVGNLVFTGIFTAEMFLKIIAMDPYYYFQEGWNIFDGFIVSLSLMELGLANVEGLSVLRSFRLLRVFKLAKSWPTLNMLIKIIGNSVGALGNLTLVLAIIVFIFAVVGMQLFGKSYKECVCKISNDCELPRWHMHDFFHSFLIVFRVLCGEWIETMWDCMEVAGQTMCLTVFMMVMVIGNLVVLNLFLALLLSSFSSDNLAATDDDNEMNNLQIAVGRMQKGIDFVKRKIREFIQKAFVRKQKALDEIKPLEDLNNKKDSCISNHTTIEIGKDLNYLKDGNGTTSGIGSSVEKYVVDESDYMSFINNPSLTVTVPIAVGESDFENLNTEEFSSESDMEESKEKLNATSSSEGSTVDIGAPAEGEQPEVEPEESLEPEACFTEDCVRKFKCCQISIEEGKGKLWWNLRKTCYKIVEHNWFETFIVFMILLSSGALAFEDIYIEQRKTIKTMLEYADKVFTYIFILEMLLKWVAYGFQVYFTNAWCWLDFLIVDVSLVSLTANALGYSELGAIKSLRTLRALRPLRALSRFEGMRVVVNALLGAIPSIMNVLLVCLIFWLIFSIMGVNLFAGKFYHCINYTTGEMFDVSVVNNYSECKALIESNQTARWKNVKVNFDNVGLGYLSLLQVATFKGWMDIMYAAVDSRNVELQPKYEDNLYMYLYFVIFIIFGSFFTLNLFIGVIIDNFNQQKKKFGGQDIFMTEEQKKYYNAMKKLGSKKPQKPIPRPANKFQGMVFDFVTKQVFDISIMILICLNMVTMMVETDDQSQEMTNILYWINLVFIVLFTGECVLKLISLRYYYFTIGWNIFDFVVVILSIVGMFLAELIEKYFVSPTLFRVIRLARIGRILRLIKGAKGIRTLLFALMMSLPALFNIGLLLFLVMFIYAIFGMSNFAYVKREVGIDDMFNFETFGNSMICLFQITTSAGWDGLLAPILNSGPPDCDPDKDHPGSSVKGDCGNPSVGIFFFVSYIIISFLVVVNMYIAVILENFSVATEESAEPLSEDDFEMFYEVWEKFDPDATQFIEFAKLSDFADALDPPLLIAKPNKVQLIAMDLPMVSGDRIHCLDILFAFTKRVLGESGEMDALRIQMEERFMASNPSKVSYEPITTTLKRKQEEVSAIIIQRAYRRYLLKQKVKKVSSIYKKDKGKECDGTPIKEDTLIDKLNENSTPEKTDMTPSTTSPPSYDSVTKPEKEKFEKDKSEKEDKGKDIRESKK
T1 sequence (Q07699 19-218 partner): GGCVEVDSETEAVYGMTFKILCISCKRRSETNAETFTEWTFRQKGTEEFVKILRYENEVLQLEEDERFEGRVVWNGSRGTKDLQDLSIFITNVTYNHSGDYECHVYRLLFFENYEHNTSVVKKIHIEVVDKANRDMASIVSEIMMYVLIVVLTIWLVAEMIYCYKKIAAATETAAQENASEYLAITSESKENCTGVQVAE
T1 sequence (O60939 30-215 partner): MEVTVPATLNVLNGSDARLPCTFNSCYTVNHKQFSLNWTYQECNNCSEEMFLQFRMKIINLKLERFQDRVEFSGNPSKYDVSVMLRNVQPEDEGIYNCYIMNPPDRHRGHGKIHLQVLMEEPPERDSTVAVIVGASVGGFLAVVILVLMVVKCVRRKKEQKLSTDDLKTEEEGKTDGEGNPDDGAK
Protocol: HEK-293 cells stably expressing wild-type (WT) hNaV1.2 (SCN2A NCBI # NM_021007.2, SCN1B NCBI # NM_001037.4, SCN2B NCBI # NM_004588.2) were used to record INa. Cells are maintained with standard tissue culture procedures and stable channel expression is maintained with 800 ug/mL G418 and 3 ug/mL Puromycin in the culture medium. Unless otherwise noted, all reagents are purchased from Sigma-Aldrich (St Louis, Mo., U.S.A.).
Assays measuring Use-Dependent Block (UDB) of NaV1.2 are performed on an automated electrophysiology platform, QPatch 16X or QPatch HT (Sophion Bioscience, Copenhagen, Denmark), using the whole cell patch clamp technique to measure currents through the cell membrane. Series resistance compensation is set to 100% and series resistance and whole-cell compensation are performed automatically. Currents stored in the Sophion Bioscience Oracle database (Sophion Bioscience, Copenhagen, Denmark). Analysis is performed using QPatch Assay software and data are compiled in Excel 2010 (Microsoft, Seattle, Wash., U.S.A.). The internal (pipette) solution consists of (in mM) 105 CsF, 10 NaF, 20 CsCl, 2 EGTA, 10 HEPES, 10 Dextrose with a pH of 7.35 and osmolarity of 300 mOsmol/kg. The external (bath) solution contains in (mM): 145 NaCl, 4 KCl, 1.8 CaCl2, 1 MgCl2, 10 dextrose, 10 HEPES, with a pH of 7.35 and osmolarity of 310 mOsmol/kg. Experiments are carried out at 23-25° C.
(§1) Compound stocks are routinely made by the Gilead Sample Bank in vials to 10 mM in dimethyl sulfoxide (DMSO). In some cases, when compounds are not soluble in DMSO, they are made in 100% ethanol. Stocks are sonicated as necessary. […]
Cells are allowed to stabilize for 10 min after establishment of the whole-cell configuration before current is measured. The test compound is applied 2 times at 60 second intervals. After the second compound addition, a 200 second wait period was imposed to allow for equilibration. Leak currents are subtracted by using an online P/4 procedure and all currents are low-pass Bessel filtered at 5 kHz and digitized at […].
Results are presented as mean percentage inhibition.
Use-dependent block of NaV1.2 peak current is measured during pulse number 20 of a voltage pulse train (0 mV, 20 ms, 20 pulses, 25 Hz) from a holding potential of −120 mV.
Currents are normalized to the peak current recorded in response to the first pulse in each frequency train. The voltage protocol for UDB was performed in the absence and presence of compound and percentage inhibition was calculated with respect to the compound free condition.
Data analysis is performed using QPatch Assay Software 4.0, and Excel 2002 (Microsoft, Seattle, Wash., U.S.A.).

hNaV1.1 (SCN1A) = hNaV1.1 (SCN1A) (Homo sapiens, UniProt P35498); assay: Use-dependent inhibition of the CNS NaV1.1 sodium channel; format: cell-based; settings: % inhibition; for inhibition at 1 µM / inhibition at 10 µM: 25 Hz; for inhibition at 1 µM: read-out: Nav1.1 UDB 25 Hz 1 uM; for inhibition at 10 µM: read-out: Nav1.1 UDB 25 Hz 10 uM
Protocol: HEK-293 cells stably expressing wild-type (WT) hNaV1.1 (SCN1A, NCBI# AB09354) were obtained from Millipore (Cat. # CYL3009) were used to record INa. Cells are maintained with standard tissue culture procedures and stable channel expression is maintained with 400 ug/mL G418 in the culture medium. Unless otherwise noted, all reagents are purchased from Sigma-Aldrich (St Louis, Mo., U.S.A.).
Assays measuring Use-Dependent Block (UDB) of NaV1.2 are performed on an automated electrophysiology platform, QPatch 16X or QPatch HT (Sophion Bioscience, Copenhagen, Denmark), using the whole cell patch clamp technique to measure currents through the cell membrane. Series resistance compensation is set to 100% and series resistance and whole-cell compensation are performed automatically. Currents stored in the Sophion Bioscience Oracle database (Sophion Bioscience, Copenhagen, Denmark). Analysis is performed using QPatch Assay software and data are compiled in Excel 2010 (Microsoft, Seattle, Wash., U.S.A.).
The internal (pipette) solution consists of (in mM) 105 CsF, 10 NaF, 20 CsCl, 2 EGTA, 10 HEPES, 10 Dextrose with a pH of 7.35 and osmolarity of 300 mOsmol/kg. The external (bath) solution contains in (mM): 145 NaCl, 4 KCl, 1.8 CaCl2, 1 MgCl2, 10 dextrose, 10 HEPES, with a pH of 7.35 and osmolarity of 310 mOsmol/kg. Experiments are carried out at 23-25° C.
as §1
Cells are allowed to stabilize for 10 min after establishment of the whole-cell configuration before current is measured. The test compound is applied 2 times at 60 second intervals. After the second compound addition, a 200 second wait period was imposed to allow for equilibration.
Leak currents are subtracted by using an online P/4 procedure and all currents are low-pass Bessel filtered at 5 kHz and digitized at […].
Use-dependent block of NaV1.2 peak current is measured during pulse number 20 of a voltage pulse train (0 mV, 20 ms, 20 pulses, 25 Hz) from a holding potential of −120 mV. Currents are normalized to the peak current recorded in response to the first pulse in each frequency train. The voltage protocol for UDB was performed in the absence and presence of compound and percentage inhibition was calculated with respect to the compound free condition. Results are presented as mean percentage inhibition and data analysis is performed using QPatch Assay Software 4.0, and Excel 2002 (Microsoft, Seattle, Wash., U.S.A.).

| SMILES | Nav1.2 UDB 25 Hz 1 uM (hNaV1.2 (SCN2A); use-dependent block at 1 uM) | Nav1.2 UDB 25 Hz 10 uM (hNaV1.2 (SCN2A); use-dependent block at 10 uM) | Nav1.1 UDB 25 Hz 1 uM (hNaV1.1 (SCN1A); use-dependent block at 1 uM) | Nav1.1 UDB 25 Hz 10 uM (hNaV1.1 (SCN1A); use-dependent block at 10 uM) | inhibition at 1 µM (hNaV1.2 (SCN2A); use-dependent block at 1 uM) | inhibition at 10 µM (hNaV1.2 (SCN2A); use-dependent block at 10 uM) | inhibition at 1 µM (hNaV1.1 (SCN1A); use-dependent block at 1 uM) | inhibition at 10 µM (hNaV1.1 (SCN1A); use-dependent block at 10 uM) |
| --- | --- | --- | --- | --- | --- | --- | --- | --- |
| COc1cc(OC(F)(F)F)ccc1-c1ccc2c(c1)CN(Cc1ncccn1)C(=O)O2 [Example 1, 6-(2-methoxy-4-(trifluoromethoxy)phenyl)-3-(pyrimidin-2-ylmethyl)-3,4-dihydro-2H-benzo[e][1,3]oxazin-2-one] | 7.9% | 37.0% | <5% | 34.4% | – | – | – | – |
| O=C1Oc2ccc(-c3ccc(C(F)(F)F)cc3)cc2CN1Cc1ccncc1 [Example 2, 3-(pyridin-4-ylmethyl)-6-(4-(trifluoromethyl)phenyl)-3,4-dihydro-2H-benzo[e][1,3]oxazin-2-one] | – | – | – | – | 19.8% | 28.1% | 9.7% | 22.6% |
| Cc1cc(-c2ccc3c(c2)CN(Cc2ncccn2)C(=O)O3)ccc1OC(F)(F)F [Example 5, 6-(3-methyl-4-(trifluoromethoxy)phenyl)-3-(pyrimidin-2-ylmethyl)-3,4-dihydro-2H-benzo[e][1,3]oxazin-2-one] | – | – | – | – | < 5% | 24.9% | < 5% | 15.3% |
| O=C1Oc2ccc(-c3ccc(Cl)c(F)c3)cc2CN1Cc1ncccn1 [Example 6, 6-(4-chloro-3-fluorophenyl)-3-(pyrimidin-2-ylmethyl)-3,4-dihydro-2H-benzo[e][1,3]oxazin-2-one] | – | – | – | – | – | – | 26.7% | 65.2% |
| O=C1Oc2ccc(-c3ccc(OC(F)(F)F)cc3F)cc2CN1Cc1ncccn1 [Example 7, 6-(2-fluoro-4-(trifluoromethoxy)phenyl)-3-(pyrimidin-2-ylmethyl)-3,4-dihydro-2H-benzo[e][1,3]oxazin-2-one] | – | – | – | – | 18% | 56.3% | 5.7% | 42.4% |
| Cc1cc(OC(F)(F)F)ccc1-c1ccc2c(c1)CN(Cc1ncccn1)C(=O)O2 [Example 8, 6-(2-methyl-4-(trifluoromethoxy)phenyl)-3-(pyrimidin-2-ylmethyl)-3,4-dihydro-2H-benzo[e][1,3]oxazin-2-one] | – | – | – | – | < 5% | 11% | < 5% | 11.6% |
| COc1cc(OC(F)(F)F)ccc1-c1ccc2c(c1)CN(Cc1ncccn1)C(=O)O2 [Example 9, 6-(2-methoxy-4-(trifluoromethoxy)phenyl)-3-(pyrimidin-2-ylmethyl)-3,4-dihydro-2H-benzo[e][1,3]oxazin-2-one] | – | – | – | – | 7.9% | 37% | < 5% | 34.4% |
| O=C1Oc2ccc(-c3ccc(OC(F)(F)F)c(F)c3)cc2CN1Cc1ncccn1 [Example 10, 6-(3-fluoro-4-(trifluoromethoxy)phenyl)-3-(pyrimidin-2-ylmethyl)-3,4-dihydro-2H-benzo[e][1,3]oxazin-2-one] | – | – | – | – | 30.2% | 75% | 35% | 75.9% |
| CC1c2cc(-c3ccc(Cl)c(F)c3)ccc2OC(=O)N1Cc1ncccn1 (stereo not drawn) [Example 11, 6-(4-chloro-3-fluorophenyl)-4-methyl-3-(pyrimidin-2-ylmethyl)-3,4-dihydro-2H-benzo[e][1,3]oxazin-2-one] | – | – | – | – | 29.9% | 77.2% | 21% | 81.1% |
| Cc1cnc(CN2Cc3cc(-c4ccc(OC(F)(F)F)cc4)ccc3OC2=O)nc1 [Example 12, 3-((5-methylpyrimidin-2-yl)methyl)-6-(4-(trifluoromethoxy)phenyl)-3,4-dihydro-2H-benzo[e][1,3]oxazin-2-one] | – | – | – | – | 15.4% | 68.8% | 7.5% | 73.9% |
| Cc1cnc(CN2Cc3cc(-c4ccc(C(F)(F)F)cc4)ccc3OC2=O)nc1 [Example 13, 3-((5-methylpyrimidin-2-yl)methyl)-6-(4-(trifluoromethyl)phenyl)-3,4-dihydro-2H-benzo[e][1,3]oxazin-2-one] | – | – | – | – | 21.4% | 63.4% | 37.5% | 88.8% |
| Cc1cnc(CN2Cc3cc(-c4ccc(OC(F)(F)F)cc4F)ccc3OC2=O)nc1 [Example 14, 6-(2-fluoro-4-(trifluoromethoxy)phenyl)-3-((5-methylpyrimidin-2-yl)methyl)-3,4-dihydro-2H-benzo[e][1,3]oxazin-2-one] | – | – | – | – | < 5% | 59.9% | < 5% | 43.8% |
| O=C1Oc2ccc(-c3ccc(OC(F)(F)F)cc3)cc2CN1CCc1ncccn1 [Example 16, 3-(2-(pyrimidin-2-yl)ethyl)-6-(4-(trifluoromethoxy)phenyl)-3,4-dihydro-2H-benzo[e][1,3]oxazin-2-one] | – | – | – | – | 23.4% | 52.9% | 17.3% | 52.2% |
| CC1c2cc(-c3ccc(OC(F)(F)F)cc3)ccc2OC(=O)N1Cc1ncccn1 (stereo not drawn) [Example 48, 4-methyl-3-(pyrimidin-2-ylmethyl)-6-(4-(trifluoromethoxy)phenyl)-3,4-dihydro-2H-benzo[e][1,3]oxazin-2-one] | – | – | – | – | – | – | 32.5% | 73.3% |
| CC1c2cc(-c3cccc(OC(F)(F)F)c3)ccc2OC(=O)N1Cc1ncccn1 (stereo not drawn) [Example 50, 4-methyl-3-(pyrimidin-2-ylmethyl)-6-(3-(trifluoromethoxy)phenyl)-3,4-dihydro-2H-benzo[e][1,3]oxazin-2-one] | – | – | – | – | – | – | 10.1% | 71.2% |
